How the values were obtained:
[1] = target: T1, Stat1:Stat1 complex (Mus musculus, UniProt P42225); assay: EMSA selectivity, nuclear extracts of EGF-stimulated NIH3T3/hEGFR, hSIE probe; type: biochemical
T1 construct: endogenous in cells; host or cells: EGF-stimulated NIH3T3/hEGFR mouse fibroblasts (nuclear extract)
T1 sequence (P42225 2-749 limits assumed): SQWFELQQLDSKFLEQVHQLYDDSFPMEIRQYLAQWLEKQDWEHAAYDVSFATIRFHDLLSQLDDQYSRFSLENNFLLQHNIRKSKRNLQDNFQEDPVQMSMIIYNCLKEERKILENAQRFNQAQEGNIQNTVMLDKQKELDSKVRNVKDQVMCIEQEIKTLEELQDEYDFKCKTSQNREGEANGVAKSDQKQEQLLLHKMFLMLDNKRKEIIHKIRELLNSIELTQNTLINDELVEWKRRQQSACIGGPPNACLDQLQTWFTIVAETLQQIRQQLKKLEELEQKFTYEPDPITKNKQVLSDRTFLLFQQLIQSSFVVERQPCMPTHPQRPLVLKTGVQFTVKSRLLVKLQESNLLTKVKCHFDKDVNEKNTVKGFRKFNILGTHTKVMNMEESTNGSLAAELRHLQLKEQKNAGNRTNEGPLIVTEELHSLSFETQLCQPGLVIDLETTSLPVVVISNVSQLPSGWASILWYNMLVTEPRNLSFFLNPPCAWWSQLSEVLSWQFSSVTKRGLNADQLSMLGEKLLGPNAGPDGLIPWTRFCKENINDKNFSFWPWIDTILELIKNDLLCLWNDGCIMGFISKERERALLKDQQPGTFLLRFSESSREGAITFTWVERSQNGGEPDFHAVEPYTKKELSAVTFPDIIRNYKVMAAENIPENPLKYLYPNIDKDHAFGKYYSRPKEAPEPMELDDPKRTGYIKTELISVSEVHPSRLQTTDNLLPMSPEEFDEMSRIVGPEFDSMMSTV
Description: (§1) Nuclear extract preparations and electrophoretic mobility shift assay (EMSA) were carried out as previously described (28,33). […] Except where indicated, nuclear extracts were pre-incubated with compound for 30 min at room temperature prior to incubation with the radiolabeled probe for 30 min at 30° C. before subjecting to EMSA analysis.

[2] = target: T2, Stat1:Stat3 complex (Mus musculus, UniProt P42227); assay: as above; type: biochemical
T2 construct: endogenous in cells; host or cells: EGF-stimulated NIH3T3/hEGFR mouse fibroblasts (nuclear extract)
T2 sequence (P42227 2-770 limits assumed, one chain of several): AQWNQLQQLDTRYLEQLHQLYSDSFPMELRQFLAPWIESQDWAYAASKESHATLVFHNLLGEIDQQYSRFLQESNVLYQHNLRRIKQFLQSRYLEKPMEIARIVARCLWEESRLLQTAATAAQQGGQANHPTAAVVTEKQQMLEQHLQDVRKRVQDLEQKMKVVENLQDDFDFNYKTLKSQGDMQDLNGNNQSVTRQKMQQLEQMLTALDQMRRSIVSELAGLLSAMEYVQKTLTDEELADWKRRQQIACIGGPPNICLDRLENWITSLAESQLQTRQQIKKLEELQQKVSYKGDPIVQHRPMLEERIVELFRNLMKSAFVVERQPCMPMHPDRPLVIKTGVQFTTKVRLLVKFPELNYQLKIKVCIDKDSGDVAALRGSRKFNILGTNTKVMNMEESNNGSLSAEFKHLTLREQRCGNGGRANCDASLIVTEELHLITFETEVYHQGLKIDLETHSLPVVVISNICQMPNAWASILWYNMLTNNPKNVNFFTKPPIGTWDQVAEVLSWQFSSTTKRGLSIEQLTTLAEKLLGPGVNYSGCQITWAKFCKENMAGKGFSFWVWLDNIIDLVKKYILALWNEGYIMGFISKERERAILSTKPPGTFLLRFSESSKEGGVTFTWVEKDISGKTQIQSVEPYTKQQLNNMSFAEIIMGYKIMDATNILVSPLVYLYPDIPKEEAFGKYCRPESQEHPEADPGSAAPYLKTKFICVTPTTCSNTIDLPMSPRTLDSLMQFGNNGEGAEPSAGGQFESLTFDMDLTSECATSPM
Description: as §1

[3] = target: T3, Stat3:Stat3 complex (Mus musculus, UniProt P42227); assay: as above; type: biochemical
T3 construct: endogenous in cells; host or cells: EGF-stimulated NIH3T3/hEGFR mouse fibroblasts (nuclear extract)
T3 sequence (P42227 2-770 limits assumed, one chain of several): as above
Description: as §1

[4] = tested on: Stat5:Stat5 complex; assay: EMSA selectivity, nuclear extracts of EGF-stimulated NIH3T3/hEGFR, MGFe probe; type: biochemical, mouse; conditions: up to 300 μM
Description: as §1

[5] = tested on: Stat3; assay: Intracellular Stat3 activation: EMSA of nuclear extracts from treated NIH3T3/v-Src, Panc-1 and MDA-MB-231 cells; type: cell-based, mouse, human; conditions: 50 μM, 24 h, Panc-1, MDA-MB-231
Description: Nuclear extract preparations and electrophoretic mobility shift assay (EMSA) were carried out as previously described (28,33). The ^32P-labeled oligonucleotide probes used were hSIE (high affinity sis-inducible element from the c-fos gene, m67 variant, 5′[…]; SEQ ID NO:5) that binds Stat1 and Stat3 (34) and MGFe (mammary gland factor element from the bovine β-casein gene promoter, 5′-[…]; SEQ ID NO:6) for Stat1 and Stat5 binding (35,36). Except where indicated, nuclear extracts were pre-incubated with compound for 30 min at room temperature prior to incubation with the radiolabeled probe for 30 min at 30° C. before subjecting to EMSA analysis. Bands corresponding to DNA-binding activities were scanned and quantified for each concentration of compound using ImageQuant and plotted as percent of control (vehicle) against concentration of compound, from which the IC50 values were derived, as previously reported (37).
Stat3 is constitutively activated in a variety of malignant cells, including human breast and pancreatic cancer cells (9, 10, 20).
Twenty-four hours after treatment, nuclear extracts were prepared from cells and subjected to Stat3 DNA-binding assay in vitro using the radiolabeled hSIE probe and analyzed by EMSA.

[6] = tested on: NIH3T3; assay: CyQuant cell viability; type: cell-based, mouse
Excerpt: (§2) Aberrant Stat3 promotes malignant cell proliferation, survival and malignant transformation (10, 20, 42). Given that S3I201.1066 disrupts Stat3 activation, we asked the question whether this agent is able to selectively decrease the viability and growth of malignant cells that harbor aberrant Stat3 activity.

[7] = tested on: Stat3-null MEFs (Stat3−/−); assay: CyQuant cell viability; type: cell-based, mouse
Excerpt: as §2

[8] = tested on: mouse thymus epithelial stromal cells (TE71); assay: CyQuant cell viability; type: cell-based
Excerpt: as §2

[9] = tested on: normal human pancreatic duct epithelial cells (HPDEC); assay: CyQuant cell viability; type: cell-based
Excerpt: as §2

[10] = tested on: NIH3T3/v-Src, MDA-MB-231 and Panc-1 cells; assay: Soft-agar colony formation assay; type: cell-based, mouse, human
Description: Colony formation assays were carried out in 6-well dishes, as described previously (16,37). Briefly, each well contained 1.5 ml of 1% agarose in Dulbeco's modified Eagle's medium as the bottom layer and 1.5 ml of 0.5% agarose in Dulbeco's modified Eagle's medium containing 4000 or 6000 NIH3T3/v-Src or NIH3T3/v-Ras fibroblasts, respectively, as the top layer. Treatment with S3I201.1066 was initiated 1 day after seeding cells by adding 80 μl of medium with or without S3I20.1.1066, and repeating every 3 days, until large colonies were evident. Colonies were quantified by staining with 20 μl of 1 mg/ml crystal violet, incubating at 37° C. overnight, and counting the next day under phase contrast microscope.

[11] = tested on: MDA-MB-231, Panc-1 and NIH3T3/v-Src cells; assay: Wound healing assay for migration; type: cell-based, human, mouse
Excerpt: Wounds were made using pipette tips in monolayer cultures of cells in six-well plates. […] The migration of cells was visualized at a 10× magnification using an Axiovert 200 Inverted Fluorescence Microscope (Zeiss, Göttingen Germany), with pictures taken using a mounted Canon Powershot A640 digital camera (Canon USA, Lake Success, N.Y.). Cells that migrated into the denuded area were quantified. Mice and in vivo tumor studies-Six-week-old female athymic nude mice were purchased from Harlan and maintained in the institutional animal facilities approved by the American Association for Accreditation of Laboratory Animal Care. Athymic nude mice were injected subcutaneously in the left flank area with 5×10^6 human breast cancer MDA-MB-231 cells in 100 μL of PBS. After 5 to 10 days, tumors of a diameter of 3 mm were established. […] Tumor volume was calculated according to the formula V=0.52×a^2×b, where a, smallest superficial diameter, b, largest superficial diameter.

Structure (SMILES): Cc1ccc(S(=O)(=O)N(C)CC(=O)N(Cc2ccc(C3CCCCC3)cc2)c2ccc(C(=O)O)c(O)c2)cc1 [S3I-201.1066]
- inhibition of Stat1:Stat1 complex ([1]; 50 μM): no significant inhibition
- inhibition of Stat1:Stat1 complex ([1]; 100 μM): moderate inhibition
- inhibition of Stat1:Stat1 complex ([1]; 200 μM): complete inhibition
- effect on Stat1:Stat3 complex ([2]; 50 μM): similarly repressed
- effect on Stat1:Stat3 complex ([2]; 100 μM): completely disrupted
- effect on Stat3:Stat3 complex with hSIE probe ([3]; 50 μM): significantly disrupted
- effect on Stat3:Stat3 complex with hSIE probe ([3]; 100 μM): completely disrupted
- effect on Stat5:Stat5 complex with the MGFe probe [4]: no effect
- constitutive Stat3 activation in treated cells [5]: significant inhibition
- derived IC60 values, viability [6]: > 200 μMm
- derived IC60 values, viability [7]: > 200 μMm
- derived IC60 values, viability [8]: > 200 μMm
- derived IC60 values, viability [9]: > 200 μMm
- growth in soft-agar suspension [10]: significantly inhibited
- numbers of cells migrating into the denuded area ([11]; 30 µM): statistically lower numbers
- numbers of cells migrating into the denuded area ([11]; 12-24 h treatment): Significantly reduced numbers
- apoptosis of the treated cells ([11]; 12-24 h treatment, data not shown): no evidence of apoptosis
- numbers of cells migrating into the denuded area ([11]; 50 or 100 μM): strongly reduced numbers

From patent US8895746B2 (University of Central Florida Research Foundation, Inc., priority 2009, dated 2014)
